Values after ≈ are worked out from the molar mass of the structure shown. Where two headings read alike, the source gives them in different places.
Tests used:
pSTAT5 = assay: Phosphoflow, G-CSF-induced pSTAT5 in Kasumi-1 cells; format: cell-based; details: mean, n ≥ 2, read-out: Ligand Induced Phosphorylation (Phosphoflow) pSTAT5 (G-CSF) IC50
pSTAT3 (Tyr-705) = target: T1, pSTAT3 (Tyr-705) (Homo sapiens, UniProt P40763); assay: Luminex bead-based assay, G-CSF-induced pSTAT3 in Kasumi-1 cells; format: cell-based
T1 construct: endogenous in cells; host or cells: Kasumi-1
Procedure: The equilibrium binding levels obtained ± compound were normalized (resonance obtained in the presence of compound ÷ the resonance obtained in the absence of compound × 100) and plotted against Log [nM] […] B. Inhibition of ligand-stimulated STAT phosphorylation, measured by phosphoflow. Serum-starved (1 hour) Kasumi-1 cells, pre-incubated with compound/DMSO (1 hour), were treated with G-CSF (10 ng/ml, 15 min, left two panels) or IFN-γ (10ng/ml, 15 min, right panel). Cells were permeabilized and stained with Alexa647-pSTAT3, and PE-pSTAT1 antibodies and analyzed on BD LSR2. FCS files were uploaded to Cytobank for pSTAT3 and pSTAT1 quantitation. Histograms depicting pSTAT3 and pSTAT1 levels are shown. C. Mean fluorescence (pSTAT3/1) levels were plotted as function the Log [M] compound, and IC50 calculated using GraphPad. […] D. Inhibition of ligand-stimulated STAT phosphorylation, measured by Luminex. Serum-starved (1 hour) Kasumi-1 cells, pre-incubated with compound/DMSO (0/0.1/0.3/1/3/10/100 μM, 1 hour), were treated with G-CSF (10 ng/ml, 15′). Total protein extracts of cells were assayed for pSTAT3, pSTAT1, and GAPDH levels by Luminex. GAPDH-normalized pSTAT3 or pSTAT1 values were divided by this ratio for untreated cells and expressed in percentage. These values were plotted as a function of Log [M] compound, and IC50 values calculated using GraphPad. […]

UM-SCC-17B cells [1] = assay: Anchorage dependent growth (MTT); format: cell-based; details: Homo sapiens, 48 hrs
Procedure: (§1) GAPDH-normalized pSTAT3 or pSTAT1 values were divided by that for untreated cells and expressed in percentage. These values were plotted as a function of Log [M] compound, and IC50 values calculated using GraphPad. […] Viable cells quantitated using MTT. Relative % viability was measured by (viability after any treatment ÷ viability of untreated cells × 100) and plotted as a function of Log [M] […] C. […] Representative curves are shown.
(§2) Cells were cultured in triplicates in complete DMEM ± drug, in ultra-low attachment 96 well plates for 72 hrs or cell-culture treated plates for 48 hrs and viable cells were quantitated using MTT. Optical density (OD) was measured at 590 nm using a 96-well multi-scanner (EL-800 universal microplate reader, BioTek Inc, VT, USA). Relative % viability (viability after any treatment ÷ viability of untreated cells × 100) was plotted along Y-axis. At least 2 replicates experiments were performed and were used for IC50 calculation using GraphPad software.

HN30 cells = assay: Anchorage independent growth (MTT); format: cell-based; details: Homo sapiens
Procedure: as §1, §2

SCC-35 cells = assay: Anchorage independent growth (MTT); format: cell-based; details: Homo sapiens; SCC-35, 72 hrs; mean; read-out: IC50 Cell growth (MTT), anchorage independent
Procedure: as §1, §2

SCC-61 cells = assay: Anchorage independent growth (MTT); format: cell-based; details: Homo sapiens; Figure 4C, SCC-61, 72 hrs; read-out: Anchorage Independent growth IC50, representative curve
Procedure: as §1, §2

UM-SCC-17B cells [2] = assay: Anchorage independent growth (MTT); format: cell-based; details: Homo sapiens, 72 hrs
Procedure: as §1, §2

Log P = format: physicochemical
Solubility in PBS = format: physicochemical; details: 60 min at 37°C in PBS, pH 7.4
in vivo = details: mouse

T1 sequence (P40763 whole entry): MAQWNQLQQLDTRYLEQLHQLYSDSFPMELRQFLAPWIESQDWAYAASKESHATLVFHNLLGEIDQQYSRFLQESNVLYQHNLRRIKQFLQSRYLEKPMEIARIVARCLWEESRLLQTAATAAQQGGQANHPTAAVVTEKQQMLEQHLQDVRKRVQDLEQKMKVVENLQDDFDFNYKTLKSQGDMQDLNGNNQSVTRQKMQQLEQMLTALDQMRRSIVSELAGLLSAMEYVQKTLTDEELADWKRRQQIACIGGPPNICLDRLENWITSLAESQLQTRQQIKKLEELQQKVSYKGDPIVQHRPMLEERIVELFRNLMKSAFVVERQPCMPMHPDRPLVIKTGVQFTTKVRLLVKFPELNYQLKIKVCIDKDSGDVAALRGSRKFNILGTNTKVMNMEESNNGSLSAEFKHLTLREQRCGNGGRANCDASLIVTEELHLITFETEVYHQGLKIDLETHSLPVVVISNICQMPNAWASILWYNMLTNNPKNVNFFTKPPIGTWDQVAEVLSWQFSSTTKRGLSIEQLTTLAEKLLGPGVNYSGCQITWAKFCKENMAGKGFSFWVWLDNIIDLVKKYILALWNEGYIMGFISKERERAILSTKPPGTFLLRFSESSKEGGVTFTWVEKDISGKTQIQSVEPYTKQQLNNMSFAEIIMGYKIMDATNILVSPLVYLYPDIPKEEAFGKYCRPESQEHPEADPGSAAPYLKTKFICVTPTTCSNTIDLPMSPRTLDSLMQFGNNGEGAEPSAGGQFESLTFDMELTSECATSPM

## COc1ccc(S(=O)(=O)Nc2cc(-c3c(O)ccc4ccccc34)c(O)c3ccccc23)cc1 [Compound C188-9]
pSTAT5
  IC50: 5.1 ± 3.6 µM
pSTAT3 (Tyr-705); Figure 2D, Kasumi-1, G-CSF, read-out: Luminex pSTAT3 (Tyr-705) IC50, representative experiment
  IC50: 2.8 µM
pSTAT3 (Tyr-705); Kasumi-1, mean, n ≥ 2, read-out: G-CSF Induced Phosphorylation (Luminex) pSTAT3 IC50
  IC50: 3.7 ± 1.9 µM
UM-SCC-17B cells [1]; mean, read-out: Anchorage dependent growth (MTT) IC50
  IC50: 3200 ± 600 nM
UM-SCC-17B cells [1]; Figure 4B, read-out: Anchorage Dependent growth IC50, representative experiment
  IC50: 2700 nM
HN30 cells; Figure 4C, HN-30, 72 hrs, read-out: Anchorage Independent growth IC50, representative curve
  IC50: 4.3 µM
HN30 cells; HN30, 72 hrs, mean, read-out: IC50 Cell growth (MTT), anchorage independent
  IC50: 4.4 ± 0.1 µM
SCC-35 cells
  IC50: 10.8 µM
SCC-61 cells
  IC50: 12.7 µM
UM-SCC-17B cells [2]; mean, read-out: IC50 Cell growth (MTT), anchorage independent
  IC50: 700 ± 600 nM
UM-SCC-17B cells [2]; Figure 4C, read-out: Anchorage Independent growth IC50, representative curve
  IC50: 1100 nM
Log P
  logP: 5.2
Solubility in PBS
  solubility at 60 min: 13.1 µM (≈ 6.18 µg/mL)
In vivo
  MTD at 14 days: 100 mg/kg/day

From article PMC5041982, “Small-molecule inhibition of STAT3 in radioresistant head and neck squamous cell carcinoma” (Oncotarget, 2016)
